Assay results as given in patent US7700584B2 (Hangzhou Minsheng Pharmaceuticals Co., Ltd., priority 2004, dated 2010).
Values after ≈ are worked out from the molar mass of the structure shown. Where two headings read alike, the source gives them in different places.

Tests used:
[1] = test system: Ehrlich's ascites carcinoma (EAC); conditions: 75 mg/Kg, subcutaneous injection; cited from earlier work
[2] = test system: SMMC-7721 human hepatic carcinoma; test: In vitro inhibition rate to tumor cells (MTT), SMMC-7721; assay type: cell-based; conditions: for inhibition at 50 µg/mL: Homo sapiens, SMMC-7721, 50 μg/ml, read-out: inhibition rate, Results (%) SMMC-7721; for inhibition rate, Results (%) SMMC-7721: 50 μg/ml
[3] = test system: U-937 human histocytic lymphoma; test: In vitro inhibition rate to tumor cells (MTT), U-937; assay type: cell-based; conditions: for inhibition at 50 µg/mL: Homo sapiens, U-937, 50 μg/ml, read-out: inhibition rate, Results (%) U-937; for inhibition rate, Results (%) U-937: 50 μg/ml
MDCK (dog kidney) cells = test: Toxicity TC50 of the samples in MDCK cells (influenza screening); conditions: concentration of 50% toxicity
[4] = test system: LLC mouse Lewis lung carcinoma; test: In vitro inhibition rate to tumor cells (MTT), LLC; assay type: cell-based; conditions: 50 μg/ml; for inhibition at 50 µg/mL: Mus musculus, Lewis lung carcinoma
[5] = test system: Bel-7402 human hepatic carcinoma; test: In vitro inhibition rate to tumor cells (MTT), Bel-7402; assay type: cell-based; conditions: for inhibition at 50 µg/mL: Homo sapiens, Bel-7402, 50 μg/ml, read-out: inhibition rate, Results (%) Bel-7402; for inhibition rate, Results (%) Bel-7402: 50 μg/ml
HepG2 cells = test: Cell status of HepG2 cells treated with sample (HBV screening); assay type: cell-based; conditions: 200 μg/ml, HepG2, four days after infection
Experimental: 1.5 Screening for the agents: The HepG2 cells were counted and 1.5×10^4 cells/well were seeded into a 96-well plate. After incubation overnight in an atmosphere of CO2 at 37° C., each of the experimental samples in a given concentration was added to the cells. After incubation at 37 °C for 24 hrs, the HepG2 treated with the samples were infected with vAcGFPHBVc of 100 MOI. A negative control and a positive control were also included. Four days after infection, the growth of the cells were observed, and the HBV e antigen in the supernatant was measured with the HBV e antigen diagnostic kit.

[6] = test system: Hela human cervical carcinoma; test: In vitro anti-tumor IC50 (MTT), Hela; assay type: cell-based; conditions: Table 4
Experimental: (§1) (1) Single cell suspension was seeded into 96-well plates (the cells was diluted in the PRMI-1640 minimum medium to 3×10^4 cells/ml, […] diluted cells/well). […] The experiments were performed in quadruplicate.
(§2) (2) The medium was removed. Solutions of the anti-tumor agents (50 compounds) were prepared in a freshly prepared medium at serial concentrations. […] of the solution was added into each well. Incubation was continued for 48 hours.
(§3) (3) 20 ug of 2 mg/ml MTT was added into each well, and incubated for 4 hours.
(§4) (4) The medium was removed from the well. The microplates were swiftly turned down to throw-off the medium. […] of DMSO was added into each well, and vortexed at room temperature for 10 minutes.
(§5) (5) OD value (λ=570 nm) was measured with an Enzyme-Linked Detector.
(§6) (6) The graph of cell vitality was plotted, and IC50 was calculated.

[7] = background statement; cited from earlier work
[8] = test system: Hela human cervical carcinoma; test: In vitro inhibition rate to tumor cells (MTT), Hela; assay type: cell-based; conditions: 50 μg/ml; for inhibition at 50 µg/mL: Homo sapiens, HeLa, read-out: inhibition rate, Results (%) Hela
[9] = test system: HL-60 human promyelocytic leukemia; test: In vitro inhibition rate to tumor cells (MTT), HL-60; assay type: cell-based; conditions: for inhibition at 50 µg/mL: Homo sapiens, HL-60, 50 μg/ml, read-out: inhibition rate, Results (%) HL-60; for inhibition rate, Results (%) HL-60: 50 μg/ml
[10] = test system: MCF-7 human mammary adenocarcinoma; test: In vitro inhibition rate to tumor cells (MTT), MCF-7; assay type: cell-based; conditions: for inhibition at 50 µg/mL: Homo sapiens, MCF7, 50 μg/ml, read-out: inhibition rate, Results (%) MCF-7; for inhibition rate, Results (%) MCF-7: 50 μg/ml
[11] = test system: A-549 human lung adenocarcinoma; test: In vitro inhibition rate to tumor cells (MTT), A-549; assay type: cell-based; conditions: for inhibition at 50 µg/mL: Homo sapiens, A549, 50 μg/ml, read-out: inhibition rate, Results (%) A-549; for inhibition rate, Results (%) A-549: 50 μg/ml
293 cells = test: Cell status of 293 cells treated with sample alone (herpes virus screening)
Hepatitis B virus (HBV) = assay type: cell-based; conditions: 200 μg/ml; for (Value of the positive control - Measured Value) Value of the positive control × 100%: decrease of HBeAg relative to positive control; for OD450 of HBeAg: supernatant four days after infection, positive control 1.917, negative 0.057
mouse sarcoma 37 = conditions: 75 mg/Kg, subcutaneous injection; cited from earlier work
uterine cervix cancer = conditions: 75 mg/Kg, subcutaneous injection; cited from earlier work
[12] = assay type: cell-based, VSV; conditions: 200 μg/ml, 24 hrs after infection
[13] = test system: U-937 human histocytic lymphoma; test: In vitro anti-tumor IC50 (MTT), U-937; assay type: cell-based; conditions: Table 4
Experimental: as §1, §2, §3, §4, §5, §6

[14] = 50 μg/ml, 293 cells without virus, 12 hrs

C=C1CC2(O)OC3(CC2C(C)C)C(C)CCC13 (centres unmarked) [Curcumol E, Curcumol, reference compound]
inhibition rate against Ehrlich's ascites carcinoma (in words) [1]: high inhibition rate | inhibition at 50 µg/mL ([2]; Table 1): -11.5% | inhibition at 50 µg/mL ([2]; Table 2 (repeated screening)): -12.3% | inhibition at 50 µg/mL ([2]; Table 3 (repeated screening)): -0.23% | inhibition at 50 µg/mL ([3]; Table 1): 28% | inhibition at 50 µg/mL ([3]; Table 2 (repeated screening)): 14.3% | inhibition at 50 µg/mL ([3]; Table 3 (repeated screening)): 19.8% | TC50 (MDCK (dog kidney) cells): >1000 µg/mL | inhibition at 50 µg/mL ([4]; Table 1): -3.04% | inhibition at 50 µg/mL ([4]; Table 2 (repeated screening)): -8.9% | inhibition at 50 µg/mL ([4]; Table 3 (repeated screening)): -14.4% | inhibition at 50 µg/mL ([5]; Table 1): 4.79% | inhibition at 50 µg/mL ([5]; Table 2 (repeated screening)): 9.87% | inhibition at 50 µg/mL ([5]; Table 3 (repeated screening)): 9.78% | Cell status (HepG2 cells): Normal | IC50 ([6]; Homo sapiens, HeLa, read-out: IC50 (ug/ml) against tumor cell lines, Hela): 3.23 µg/mL (≈ 13.7 µM) | water solubility (in words) [7]: Poor water solubility | inhibition at 50 µg/mL ([8]; Table 1): 86.8% | inhibition at 50 µg/mL ([8]; Table 2 (repeated screening)): 70.1% | inhibition at 50 µg/mL ([8]; Table 3 (repeated screening)): 78.6% | inhibition at 50 µg/mL ([9]; Table 1): 1.32% | inhibition at 50 µg/mL ([9]; Table 2 (repeated screening)): 1.23% | inhibition at 50 µg/mL ([9]; Table 3 (repeated screening)): 1.79% | inhibition at 50 µg/mL ([10]; Table 1): 55.6% | inhibition at 50 µg/mL ([10]; Table 2 (repeated screening)): 50.2% | inhibition at 50 µg/mL ([10]; Table 3 (repeated screening)): 51.2% | inhibition at 50 µg/mL ([11]; Table 1): -0.57% | inhibition at 50 µg/mL ([11]; Table 2 (repeated screening)): -11.3% | inhibition at 50 µg/mL ([11]; Table 3 (repeated screening)): -16.6% | Cytopathy and cell status, Sample (293 cells; [14]): Good | (Value of the positive control - Measured Value) Value of the positive control × 100% (Hepatitis B virus (HBV)): −38.4455% | OD450 of HBeAg (Hepatitis B virus (HBV)): 2.654 | inhibition rate against mouse sarcoma 37 (in words) (mouse sarcoma 37): high inhibition rate | inhibition rate against uterine cervix cancer (in words) (uterine cervix cancer): high inhibition rate

CCCCNC=C1CC2(O)OC3(CC2C(C)C)C(C)CCC13.Cl (centres unmarked) [Compound 14, Curcumol n-butyl amine hydrochloride]
inhibition rate, Results (%) SMMC-7721 ([2]; Table 1): 6.14% | inhibition rate, Results (%) SMMC-7721 ([2]; Table 2 (repeated screening)): 3.21% | inhibition rate, Results (%) U-937 ([3]; Table 1): 82.88% | inhibition rate, Results (%) U-937 ([3]; Table 2 (repeated screening)): 81.23% | TC50 (MDCK (dog kidney) cells): 143.17 µg/mL | inhibition rate, Results (%) LLC ([4]; Table 1): −10.57% | inhibition rate, Results (%) LLC ([4]; Table 2 (repeated screening)): −14.29% | inhibition rate, Results (%) Bel-7402 ([5]; Table 1): 32.00% | inhibition rate, Results (%) Bel-7402 ([5]; Table 2 (repeated screening)): 23.56% | Cytopathy and cell status, Sample + VSV [12]: Cytopathy, poor | Cell status (HepG2 cells): Poor | IC50 (ug/ml) against tumor cell lines, Hela [6]: 1.5 µg/mL | inhibition rate, Results (%) Hela ([8]; Table 1): 75.46% | inhibition rate, Results (%) Hela ([8]; Table 2 (repeated screening)): 76.32% | inhibition rate, Results (%) HL-60 ([9]; Table 1): 2.45% | inhibition rate, Results (%) HL-60 ([9]; Table 2 (repeated screening)): 4.35% | IC50 (ug/ml) against tumor cell lines, U-937 [13]: 0.58 µg/mL | inhibition rate, Results (%) MCF-7 ([10]; Table 1): 56.30% | inhibition rate, Results (%) MCF-7 ([10]; Table 2 (repeated screening)): 54.23% | inhibition rate, Results (%) A-549 ([11]; Table 1): 8.09% | inhibition rate, Results (%) A-549 ([11]; Table 2 (repeated screening)): 9.23% | Cytopathy and cell status, Sample (293 cells; [14]): Good | Cytopathy and cell status, Sample (293 cells; 200 μg/ml, 24 hrs): Poor | (Value of the positive control - Measured Value) Value of the positive control × 100% (Hepatitis B virus (HBV)): 97.24% | OD450 of HBeAg (Hepatitis B virus (HBV)): 0.053
